# Test results: ChEMBL document CHEMBL4033732, “Identification and synthesis of novel inhibitors of mycobacterium ATP synthase” (Bioorg Med Chem Lett, 2017)
# Test system: HeLa
# Assay: Cytotoxicity against human HeLa cells incubated for 48 hrs by MTT assay
# Type: functional
# Details: not given
row,Compound,GI50 [µg/mL]
1,CC(C)(C)c1ccc(CN2CC(O)n3nc(C(=O)N4CCCCC4)cc3C2=O)cc1 (configuration not stated),> 100
2,O=C(c1cc2n(n1)CCN(Cc1ccc(Cl)cc1)C2=O)N1CCCCC1,> 100
3,CC(C)(C)c1ccc(Cn2ccn3nc(C(=O)N4CCCCC4)cc3c2=O)cc1,32
4,O=C(c1cc2n(c1)CCN(Cc1ccc(Cl)c(Cl)c1)C2=O)N1CCCCC1,> 100
5,CC(C)(C)c1ccc(CN2CCn3nc(C(=O)N4CCCCC4)cc3C2=O)cc1,> 100
6,O=C(c1cc2n(n1)CCN(Cc1cccc(Cl)c1)C2=O)N1CCCCC1,> 100
7,O=C(c1cc2n(n1)CCN(Cc1cccc(-c3ccccc3)c1)C2=O)N1CCCCC1,> 100

# Test system: not listed separately
# Assay: Lipophilicity, log D of the compound
# Type: physicochemical
# Details: octanol/water
row,Compound,logD
1,CC(C)(C)c1ccc(CN2CC(O)n3nc(C(=O)N4CCCCC4)cc3C2=O)cc1 (configuration not stated),3
2,CC(C)(C)c1ccc(Cn2ccn3nc(C(=O)N4CCCCC4)cc3c2=O)cc1,3.7
3,CC(C)(C)c1ccc(CN2CCn3nc(C(=O)N4CCCCC4)cc3C2=O)cc1,4

# Target: CYP3A4 (Homo sapiens, UniProt P08684)
# Assay: Inhibition of CYP3A4 in human liver microsomes at 10 uM
# Type: ADME
# Details: not given
# Chain of CYP3A4 (P08684 whole entry): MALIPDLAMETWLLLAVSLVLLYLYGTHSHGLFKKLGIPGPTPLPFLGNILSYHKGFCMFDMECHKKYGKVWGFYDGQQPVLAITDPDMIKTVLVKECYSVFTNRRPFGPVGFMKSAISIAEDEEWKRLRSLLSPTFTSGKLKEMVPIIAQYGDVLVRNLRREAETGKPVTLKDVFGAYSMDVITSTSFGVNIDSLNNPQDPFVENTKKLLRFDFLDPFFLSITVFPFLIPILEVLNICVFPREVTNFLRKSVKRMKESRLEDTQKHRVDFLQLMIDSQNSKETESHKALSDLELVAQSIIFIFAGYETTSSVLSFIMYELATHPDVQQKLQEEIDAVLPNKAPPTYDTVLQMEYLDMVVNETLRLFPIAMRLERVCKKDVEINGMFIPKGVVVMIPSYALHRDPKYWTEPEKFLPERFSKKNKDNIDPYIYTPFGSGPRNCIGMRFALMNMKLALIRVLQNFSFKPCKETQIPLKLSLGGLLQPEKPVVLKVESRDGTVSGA
row,Compound,inhibition at 10 µM [%]
1,CC(C)(C)c1ccc(CN2CC(O)n3nc(C(=O)N4CCCCC4)cc3C2=O)cc1 (configuration not stated),0
2,CC(C)(C)c1ccc(Cn2ccn3nc(C(=O)N4CCCCC4)cc3c2=O)cc1,0
3,CC(C)(C)c1ccc(CN2CCn3nc(C(=O)N4CCCCC4)cc3C2=O)cc1,0

# Target: T1, CYP1A2 (Homo sapiens, UniProt P05177)
# T1 sequence (P05177 whole entry): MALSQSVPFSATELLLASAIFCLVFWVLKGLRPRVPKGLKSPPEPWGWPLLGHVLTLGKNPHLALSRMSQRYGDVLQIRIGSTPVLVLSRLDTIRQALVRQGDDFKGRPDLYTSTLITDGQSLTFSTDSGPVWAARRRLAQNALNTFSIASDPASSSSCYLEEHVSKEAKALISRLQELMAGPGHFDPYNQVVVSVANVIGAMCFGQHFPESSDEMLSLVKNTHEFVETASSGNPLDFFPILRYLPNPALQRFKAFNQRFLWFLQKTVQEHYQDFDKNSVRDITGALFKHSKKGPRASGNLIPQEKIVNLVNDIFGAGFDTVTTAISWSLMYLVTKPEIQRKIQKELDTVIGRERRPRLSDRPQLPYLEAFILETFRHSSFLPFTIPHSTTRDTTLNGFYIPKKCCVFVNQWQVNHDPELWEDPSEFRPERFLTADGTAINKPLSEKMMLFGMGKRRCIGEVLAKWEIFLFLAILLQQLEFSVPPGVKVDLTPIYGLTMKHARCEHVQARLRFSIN
# Assay: Inhibition of CYP1A2 in human liver microsomes at 10 uM
# Type: ADME
# Details: not given
row,Compound,inhibition at 10 µM [%]
1,CC(C)(C)c1ccc(CN2CC(O)n3nc(C(=O)N4CCCCC4)cc3C2=O)cc1 (configuration not stated),0
2,CC(C)(C)c1ccc(Cn2ccn3nc(C(=O)N4CCCCC4)cc3c2=O)cc1,0
3,CC(C)(C)c1ccc(CN2CCn3nc(C(=O)N4CCCCC4)cc3C2=O)cc1,17

# Target: CYP2C19 (Homo sapiens, UniProt P33261)
# Assay: Inhibition of CYP2C19 in human liver microsomes at 10 uM
# Type: ADME
# Details: not given
# Chain of CYP2C19 (P33261 whole entry): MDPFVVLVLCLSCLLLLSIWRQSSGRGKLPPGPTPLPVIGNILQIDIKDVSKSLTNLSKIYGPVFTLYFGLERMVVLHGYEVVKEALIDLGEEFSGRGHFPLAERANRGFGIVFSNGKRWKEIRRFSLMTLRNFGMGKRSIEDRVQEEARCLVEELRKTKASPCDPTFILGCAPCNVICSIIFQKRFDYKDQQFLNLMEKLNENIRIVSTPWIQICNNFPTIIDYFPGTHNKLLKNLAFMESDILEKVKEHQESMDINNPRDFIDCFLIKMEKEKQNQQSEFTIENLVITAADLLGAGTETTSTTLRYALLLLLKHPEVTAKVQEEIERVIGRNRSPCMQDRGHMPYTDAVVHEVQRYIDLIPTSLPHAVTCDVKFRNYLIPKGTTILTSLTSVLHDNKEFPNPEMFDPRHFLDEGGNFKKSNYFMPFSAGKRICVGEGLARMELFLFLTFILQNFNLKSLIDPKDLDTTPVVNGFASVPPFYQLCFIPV
row,Compound,inhibition at 10 µM [%]
1,CC(C)(C)c1ccc(CN2CC(O)n3nc(C(=O)N4CCCCC4)cc3C2=O)cc1 (configuration not stated),4
2,CC(C)(C)c1ccc(Cn2ccn3nc(C(=O)N4CCCCC4)cc3c2=O)cc1,31
3,CC(C)(C)c1ccc(CN2CCn3nc(C(=O)N4CCCCC4)cc3C2=O)cc1,0

# Target: CYP2C9 (Homo sapiens, UniProt P11712)
# Assay: Inhibition of CYP2C9 in human liver microsomes at 10 uM
# Type: ADME
# Details: not given
# Chain of CYP2C9 (P11712 whole entry): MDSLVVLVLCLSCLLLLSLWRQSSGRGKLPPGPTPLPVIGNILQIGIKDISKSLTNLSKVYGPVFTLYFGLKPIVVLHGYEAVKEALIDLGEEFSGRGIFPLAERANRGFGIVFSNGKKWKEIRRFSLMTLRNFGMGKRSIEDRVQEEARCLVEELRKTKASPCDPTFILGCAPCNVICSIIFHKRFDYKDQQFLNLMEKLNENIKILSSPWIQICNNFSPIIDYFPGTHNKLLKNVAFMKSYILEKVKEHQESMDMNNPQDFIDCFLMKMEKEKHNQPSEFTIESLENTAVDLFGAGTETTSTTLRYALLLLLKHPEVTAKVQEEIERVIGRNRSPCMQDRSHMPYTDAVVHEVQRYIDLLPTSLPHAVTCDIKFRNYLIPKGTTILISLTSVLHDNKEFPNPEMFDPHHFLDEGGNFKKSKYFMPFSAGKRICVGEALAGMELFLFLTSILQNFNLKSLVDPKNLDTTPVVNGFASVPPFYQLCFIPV
row,Compound,inhibition at 10 µM [%]
1,CC(C)(C)c1ccc(CN2CC(O)n3nc(C(=O)N4CCCCC4)cc3C2=O)cc1 (configuration not stated),29
2,CC(C)(C)c1ccc(Cn2ccn3nc(C(=O)N4CCCCC4)cc3c2=O)cc1,46
3,CC(C)(C)c1ccc(CN2CCn3nc(C(=O)N4CCCCC4)cc3C2=O)cc1,19

# Target: not listed separately
# Assay: Inhibition of ATP synathse in Mycobacterium smegmatis str. MC2 155 inverted membrane vesicles assessed as ATP formation pre-incubated for 30 mins before NADH-ADP-phosphate buffer cocktail addition and measured after 60 mins by kinase glow reagent based assay
# Set-up: species or system Mycolicibacterium smegmatis MC2 155
# Details: not given
row,Compound,IC50 [nM]
1,CC(C)(C)c1ccc(CN2CC(O)n3nc(C(=O)N4CCCCC4)cc3C2=O)cc1 (configuration not stated),3300
2,O=C(c1cc2n(n1)CCN(Cc1ccc(Cl)cc1)C2=O)N1CCCCC1,1050
3,CC(C)(C)c1ccc(Cn2ccn3nc(C(=O)N4CCCCC4)cc3c2=O)cc1,280
4,O=C(c1cc2n(c1)CCN(Cc1ccc(Cl)c(Cl)c1)C2=O)N1CCCCC1,1550
5,CC(C)(C)c1ccc(CN2CCn3nc(C(=O)N4CCCCC4)cc3C2=O)cc1,290
6,O=C(c1cc2n(n1)CCN(Cc1cccc(Cl)c1)C2=O)N1CCCCC1,110
7,O=C(c1cc2n(n1)CCN(Cc1cccc(-c3ccccc3)c1)C2=O)N1CCCCC1,46

# Test system: not listed separately
# Assay: Solubility in pH 6.8 buffer
# Type: physicochemical
# Details: not given
row,Compound,solubility [µg/mL]
1,CC(C)(C)c1ccc(CN2CC(O)n3nc(C(=O)N4CCCCC4)cc3C2=O)cc1 (configuration not stated),40
2,CC(C)(C)c1ccc(Cn2ccn3nc(C(=O)N4CCCCC4)cc3c2=O)cc1,< 1
3,CC(C)(C)c1ccc(CN2CCn3nc(C(=O)N4CCCCC4)cc3C2=O)cc1,54

# Test system: Mycobacterium tuberculosis
# Assay: Antimicrobial activity against Mycobacterium tuberculosis H37Rv assessed as reduction in microbial growth incubated for 5 days by CLSI protocol based assay
# Type: functional
# Details: 120 h
row,Compound,MIC [µg/mL]
1,CC(C)(C)c1ccc(CN2CC(O)n3nc(C(=O)N4CCCCC4)cc3C2=O)cc1 (configuration not stated),16
2,O=C(c1cc2n(n1)CCN(Cc1ccc(Cl)cc1)C2=O)N1CCCCC1,8
3,CC(C)(C)c1ccc(Cn2ccn3nc(C(=O)N4CCCCC4)cc3c2=O)cc1,2
4,O=C(c1cc2n(c1)CCN(Cc1ccc(Cl)c(Cl)c1)C2=O)N1CCCCC1,8
5,CC(C)(C)c1ccc(CN2CCn3nc(C(=O)N4CCCCC4)cc3C2=O)cc1,8
6,O=C(c1cc2n(n1)CCN(Cc1cccc(Cl)c1)C2=O)N1CCCCC1,8
7,O=C(c1cc2n(n1)CCN(Cc1cccc(-c3ccccc3)c1)C2=O)N1CCCCC1,8

# Target: CYP2D6 (Homo sapiens, UniProt P10635)
# Assay: Inhibition of CYP2D6 in human liver microsomes at 10 uM
# Type: ADME
# Details: not given
# Chain of CYP2D6 (P10635 whole entry): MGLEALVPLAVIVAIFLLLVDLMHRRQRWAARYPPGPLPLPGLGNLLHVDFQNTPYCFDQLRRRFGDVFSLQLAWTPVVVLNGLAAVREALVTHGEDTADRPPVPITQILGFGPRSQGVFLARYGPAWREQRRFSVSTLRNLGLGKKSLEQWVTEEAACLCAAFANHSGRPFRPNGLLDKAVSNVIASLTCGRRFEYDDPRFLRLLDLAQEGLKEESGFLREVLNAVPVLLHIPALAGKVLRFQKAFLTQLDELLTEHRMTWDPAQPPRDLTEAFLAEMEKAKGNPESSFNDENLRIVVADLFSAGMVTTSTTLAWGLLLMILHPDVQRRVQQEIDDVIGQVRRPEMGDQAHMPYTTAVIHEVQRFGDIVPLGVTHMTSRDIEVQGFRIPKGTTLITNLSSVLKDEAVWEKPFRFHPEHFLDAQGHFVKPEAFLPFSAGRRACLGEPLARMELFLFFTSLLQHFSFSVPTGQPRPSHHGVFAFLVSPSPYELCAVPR
row,Compound,inhibition at 10 µM [%]
1,CC(C)(C)c1ccc(CN2CC(O)n3nc(C(=O)N4CCCCC4)cc3C2=O)cc1 (configuration not stated),48
2,CC(C)(C)c1ccc(Cn2ccn3nc(C(=O)N4CCCCC4)cc3c2=O)cc1,14
3,CC(C)(C)c1ccc(CN2CCn3nc(C(=O)N4CCCCC4)cc3C2=O)cc1,0
